Results reported in publication PMC7158214 (Clinical Pharmacology and Therapeutics, 2020).
Values joined by “and” are separate entries in the source; they are usually repeats but may differ in a detail not shown here. Identical values can stand only once. Like-named read-outs stand apart in the source and are kept apart here.

What was measured:
OATP1B [1] = assay: Nonlinear regression of AUCR^-1 vs rifampicin Cmax; assay type: in vivo, human; details: from AUCR based on AUC0-24h
OATP1B [2] = assay: Effect of rifampicin on plasma AUC0-24h of endogenous compounds; assay type: in vivo, human; details: for AUC0-24h Geometric Mean Ratio Control/Baseline (90% CI): probe cocktail vs placebo day; for AUC0-24h Geometric Mean Ratio +RIF/Control (90% CI): +RIF600
OATP1B [3] = details: +RIF600
[4] = cited from earlier work
[5] = assay type: in vivo; details: human, plasma, po

Compound | fRIF (fraction sensitive to inhibition by rifampicin) (OATP1B [1]) | AUC0-24h Geometric Mean Ratio +RIF/Control (90% CI) (OATP1B [2]) | further results
C[C@H](CCC(=O)O[C@@H]1O[C@H](C(=O)O)[C@@H](O)[C@H](O)[C@H]1O)[C@H]1CC[C@H]2[C@@H]3[C@H](O)C[C@@H]4C[C@H](O)CC[C@]4(C)[C@H]3CC[C@]12C [CDCA-24G, chenodeoxycholate‐24‐glucuronide] | 0.801 ± 0.124 | – | AUC0-24h Geometric Mean Ratio Control/Baseline (90% CI) (OATP1B [2]): > 1.25 and 1.4
C[C@H](CCC(=O)NCC(=O)O)[C@H]1CC[C@H]2[C@@H]3[C@H](O)C[C@@H]4C[C@H](O)CC[C@]4(C)[C@H]3C[C@H](O)[C@]12C [GCA, glycocholate] | – | – | AUC0-24h Geometric Mean Ratio Control/Baseline (90% CI) (OATP1B [2]): > 1.25
C[C@H](CCC(=O)NCC(=O)O)[C@H]1CC[C@H]2[C@@H]3[C@H](O)C[C@@H]4C[C@H](O)CC[C@]4(C)[C@H]3CC[C@]12C [GCDCA, glycochenodexoxycholate] | – | – | AUC0-24h Geometric Mean Ratio Control/Baseline (90% CI) (OATP1B [2]): > 1.25
C[C@H](CCC(=O)NCC(=O)O)[C@H]1CC[C@H]2[C@@H]3[C@H](O)C[C@@H]4C[C@H](O[C@@H]5O[C@H](C(=O)O)[C@@H](O)[C@H](O)[C@H]5O)CC[C@]4(C)[C@H]3CC[C@]12C [GCDCA-G, glycochenodeoxycholate‐3‐glucuronide] | 1 ± 0.08 | ~ 15 | –
C[C@H](CCC(=O)NCC(=O)O)[C@H]1CC[C@H]2[C@@H]3CC[C@@H]4C[C@H](OS(=O)(=O)O)CC[C@]4(C)[C@H]3C[C@H](O)[C@]12C [GDCA-S, glycodeoxycholate‐3‐sulfate] | – | greater than 2 | –
C[C@H](CCC(=O)NCC(=O)O)[C@H]1CC[C@H]2[C@@H]3CC[C@@H]4C[C@H](OS(=O)(=O)O)CC[C@]4(C)[C@H]3CC[C@]12C [GLCA-S, glycolithocholate‐3‐sulfate] | – | greater than 2 | –
O=C(O)CCCCCCCCCCCCCCC(=O)O [HDA, hexadecanedioic acid] | 0.776 ± 0.093 | – | –
O=C(O)C[C@H](O)C[C@H](O)/C=C/c1c(C2CC2)nc2ccccc2c1-c1ccc(F)cc1 [Pitavastatin, pitavastatin, reference compound] | 0.810 ± 0.043 | – | AUC0-24h Geometric Mean Ratio +RIF/Control (90% CI) (OATP1B [3]): 4.0
CO[C@H]1/C=C/O[C@@]2(C)Oc3c(C)c(O)c4c(O)c(c(/C=N/N5CCN(C)CC5)c(O)c4c3C2=O)NC(=O)/C(C)=C\C=C\[C@H](C)[C@H](O)[C@@H](C)[C@@H](O)[C@@H](C)[C@H](OC(C)=O)[C@@H]1C [rifampicin] | – | – | AUC(0-t) ([5]; 150 mg): 19.8 ± 1.2 µM·h; Cmax ([5]; 150 mg): 4.78 ± 0.29 µM; AUC(0-t) ([5]; 300 mg): 55.5 ± 3.4 µM·h; AUC(0-t) ([5]; 600 mg): 141 ± 9 µM·h; Cmax ([5]; 600 mg): 22.8 ± 2.6 µM
direct bilirubins [D-BIL] | 0.976 ± 0.180 | 2.8 | –

More lines, main results first:

fRIF (fraction sensitive to inhibition by rifampicin) (OATP1B [1]) | AUC0-24h Geometric Mean Ratio +RIF/Control (90% CI) (OATP1B [2]) | Compound | further results
0.702 ± 0.122 | – | CC(C)c1nc(N(C)S(C)(=O)=O)nc(-c2ccc(F)cc2)c1/C=C/[C@@H](O)C[C@@H](O)CC(=O)O [Rosuvastatin, rosuvastatin] | AUC0-24h Geometric Mean Ratio +RIF/Control (90% CI) (OATP1B [3]): 2.5; contribution of urinary excretion to the systemic elimination [4]: ca. 20%
– | greater than 2 | C[C@H](CCC(=O)NCCS(=O)(=O)O)[C@H]1CC[C@H]2[C@@H]3CC[C@@H]4C[C@H](OS(=O)(=O)O)CC[C@]4(C)[C@H]3CC[C@]12C [TLCA-S, taurolithocholate‐3‐sulfate] | –
0.831 ± 0.036 | – | CCCCC(=O)N(Cc1ccc(-c2ccccc2-c2nnn[nH]2)cc1)[C@H](C(=O)O)C(C)C [Valsartan, valsartan, reference compound] | AUC0-24h Geometric Mean Ratio +RIF/Control (90% CI) (OATP1B [3]): 5.5
